Reference: a melting point compilation (Tetko et al.; mined from patent text by program, amines drawn as free bases though some values may be those of a salt)

Row | Structure (SMILES) | melting point
1 | CCCC(CCC)C(=O)O[C@H]1CCC=C2C=C[C@H](C)[C@H](CC[C@@H]3C[C@@H](O)CC(=O)O3)[C@H]21 | 92 to 94 °C
2 | O=C(NC1N=C(c2ccccc2)c2oc3ccccc3c2NC1=O)OCc1ccccc1 (stereo not given) | > 260 °C
3 | CSC1CC(=O)N1CC(=O)O (single isomer, unassigned; (+)) | 117 to 118 °C
4 | N#Cc1ccc(Oc2ccccc2[N+](=O)[O-])cc1C#N | 127 °C
5 | CC(CO)n1cnc2cnc3ccccc3c21 (stereo not given) | 170 to 174 °C
6 | Cn1cc(C2=C(c3c4n(c5ccccc35)CCC(CNC(=O)OC(C)(C)C)C4)C(=O)N(O)C2=O)c2ccccc21 (stereo not given) | 238 to 240 °C
7 | Cc1noc(NS(=O)(=O)c2ccsc2NC(=O)Nc2sccc2S(=O)(=O)Nc2onc(C)c2C)c1C | 112 to 114 °C
8 | Cc1oc(-c2ccccc2)nc1/C=C/c1ccc(Br)cc1 | 138 to 139 °C
9 | CS(=O)(=O)Nc1c(C(=O)c2ccccc2)[nH]c2cc(F)ccc12 | 166 to 168 °C
10 | CCOC(=O)C1CCC(c2ccccc2)n2c(=O)n(CCl)c(=O)n21 (stereo not given) | 104 to 106 °C
11 | CCCc1c(O)c(Cl)cc(C(=O)OC)c1O | 75 to 76 °C
12 | CC(=O)C(=Cc1ccc(S(C)(=O)=O)c(Cl)c1)C(C)=O | 140 to 142 °C
13 | COC(=O)c1sc2c(C(F)(F)F)cccc2c1C1CCN(C(C)=O)CC1 | 155 °C
14 | O=S(=O)(c1ccccc1)c1ccc2c(c1)OCCN2C1CCNC1 (stereo not given) | 123 to 128 °C
15 | CCn1c(=O)n(C2CCN(C(C)(C)CCCN3C(=O)c4ccccc4S3(=O)=O)CC2)c2ccccc21 | 182 to 185 °C
16 | CC1(C)CCC(C)(C)c2cc(-c3cc(-c4ccc(C(=O)O)cc4)ccc3OCCCN)ccc21 | 243 °C
17 | O=C(O)C(=O)NC1CCCCCCC1 | 115 to 116 °C
18 | CCOC(=O)C(NC(=O)OCc1ccccc1)C(=O)O (stereo not given) | 65 to 70 °C
19 | Cc1ccc(F)cc1C(=O)Nc1ccc(C(=O)N2Cc3cccn3-c3ncccc32)cn1 | 226 to 234 °C
20 | CC1(C)NC(=O)N(CC(CS(=O)(=O)c2ccc(-c3ccc(C(F)(F)F)cc3)cc2)N(O)C=O)C1=O (stereo not given) | 180 to 182 °C

Row | Structure (SMILES) | melting point
21 | CS(=O)(=O)NCCc1ccc2c(c1)C(=O)c1ccccc1CO2 | 104 to 106 °C
22 | Cn1ncnc1COc1nc2c(cc1-c1ccccc1)nnn2-c1ccccc1F | 144 to 146 °C
23 | CSCC1COCc2nc3c(N)nc4ccccc4c3n21 (stereo not given) | 105 to 108 °C
24 | O=c1c(Nc2ccc(Cl)cc2)nc2ccccc2n1-c1ccc(Cl)cc1 | 258 to 260 °C
25 | COc1ccc(-c2cnc(N3CCc4c([nH]c5ccccc45)C3c3ccc4c(c3)OCO4)nc2)cc1OC (stereo not given) | 173 to 175 °C
26 | COc1ccc(OCC2SCCN2C(=O)CCl)cc1 (stereo not given) | 51 to 53 °C
27 | Cc1ccc(C(NC(N)=S)c2ccccc2)cc1 (stereo not given) | 167 to 168 °C
28 | O=c1c(-c2ccccc2)c(CNc2ncnc3[nH]cnc23)oc2ccc(Br)cc12 | 151 to 154 °C
29 | CCc1cc(OC)c(N)c2ccccc12 | 80 °C
30 | CC(NC(=O)C(=O)c1c[nH]c2ccc(Br)cc12)c1c[nH]c2ccc(Br)cc12 (stereo not given) | 141 °C
31 | IC#CCOc1ccncc1 | 140 to 141 °C
32 | CC(=O)OC(CCc1cc2cccnc2n(-c2cccc([N+](=O)[O-])c2)c1=O)c1ccncc1 (stereo not given) | 69 to 71 °C
33 | O=C=NC1(c2ccccc2)CCC2(CC1)OCCO2 | 38 to 41 °C
34 | CCNS(=O)(=O)c1cccc(NC(=O)c2cnn3c(C(F)(F)F)cc(-c4ccc(C(F)(F)F)cc4)nc23)c1 | 207 °C
35 | CCCCOc1cc(/C=C(\OCC)C(=O)O)ccc1OCCc1ccc(OS(C)(=O)=O)cc1 | 117 °C
36 | O=C(O)C(Cc1cc(Oc2c(Cl)cc(C(F)(F)F)cc2Cl)ccc1SC(F)(F)F)C(=O)O | 250 °C
37 | OC(CNC1CC1)COc1ccc(-c2nc(C(F)(F)F)c[nH]2)cc1 (stereo not given) | 169 to 171 °C
38 | O=C(CNS(=O)(=O)c1ccc(N2CCC(c3ccccc3)CC2)cc1)NO | 164 to 166 °C
39 | Cn1cc(/C=C/c2ccc3ccccc3n2)cc1C(=O)O | > 230 °C
40 | COC(=O)c1cccc2c1C(Cc1ccncc1)(Cc1ccnc(F)c1)c1ccccc1-2 (stereo not given) | 144 to 146 °C

Row | Structure (SMILES) | melting point
41 | COCCn1cc(-c2ccccc2)n(C(C)=O)c1=O | 73 to 75 °C
42 | Cc1cc2[nH]c(=O)ccc(=O)c2cc1C | 258 °C
43 | O=C(NC1CN(C(=O)Nc2ccc(OC(F)(F)F)c(Cl)c2)N=C1c1ccc(Br)cc1)c1ccc(Cl)cc1 (stereo not given) | > 200 °C
44 | CC(C)(C)OC(=O)N1CCN(c2ccc(Br)cn2)CC1 | 88 to 90 °C
45 | CCC(C)c1c(O)ccc2c1oc1ccc(C#N)cc12 (stereo not given) | 206 to 207 °C
46 | Cc1c(F)cnc(N)c1F | 92 to 93 °C
47 | COc1cc(-c2nc3ccccc3n2Cc2ccccc2F)cc(OC)c1OC | 154 °C
48 | COc1ccc2c(c1OCc1ccccc1)CCN(C=O)C2 | 118 °C
49 | O=C(N[C@H]1CC[C@H](CCN2CCC(c3cccc4c3CCO4)CC2)CC1)c1ccc2ncccc2c1 | 238 °C
50 | COc1cc(Nc2c(C#N)cnc3cc(-c4cnc(C=O)n4C)sc23)c(Cl)cc1Cl | 225 to 227 °C
51 | O=C(Nc1cc(Cl)ccc1S(=O)(=O)c1ccccc1)N[C@@H](Cc1ccc(NC(=O)c2c(Cl)cncc2Cl)cc1)C(=O)O | 204 °C
52 | CCCc1c(OCCCOc2cccc(C(=O)NCCCCc3cccnc3)c2)ccc(C(C)=O)c1O | 84 to 86 °C
53 | COC(=O)CCC#Cc1ccc(C(F)(F)F)cc1N | 42 °C
54 | CN1C2CCC1CN(c1ccc(Br)nn1)C2 | 118 to 120 °C
55 | CC(C)Oc1ccc(/C=C(\NC(=O)c2ccc(OCCC3C=CCC3)cc2)C(=O)NCCO)cc1 (stereo not given) | 67 to 70 °C
56 | CC(C)(C)NS(=O)(=O)c1ccc([Si](C)(C)C)s1 | 102 to 104 °C
57 | CCC(=O)NCCOc1ccccc1 | 61.5 to 64 °C
58 | CNC(c1cccc(OCOC)c1)C1CCCCC1O (stereo not given) | 87 to 89 °C
59 | Cc1c(-c2ccccc2)nc(C(C)C)c(CO)c1-c1ccc(F)cc1 | 182 to 184 °C
60 | COC(=O)C1CSC(=O)C1 (stereo not given) | 33 to 35 °C

The remaining lines, values ahead:

Row | melting point | Structure (SMILES)
61 | 248 to 250 °C | COc1cc2c(Nc3ccc(Cl)cc3F)ncnc2cc1OCCCC(=O)N1CCN(C)CC1
62 | 98 to 99 °C | CC(C)(C)OC(=O)[C@@H]1CCCN1CC(=O)[C@H](Cc1ccccc1)NC(=O)OCc1ccccc1
63 | 115 to 116 °C | CC(=O)OCCn1nc(-c2cc(C(C)(C)C)c(O)c(C(C)(C)C)c2)c2cccnc21
64 | 79 to 82 °C | COC(=O)COc1cccc(C=Cc2nc(-c3ccccc3)c(-c3ccccc3)o2)c1
65 | 147 to 149 °C | COc1ccc(C2(O)CCS(=O)(=O)CC2)cc1OC1CCCC1
66 | 142 to 143 °C | Cc1occc1C(=S)Nc1ccc(Cl)c(C=NN2CCOCC2)c1
67 | 158 to 159 °C | CN(C)Cc1cccc2nc3n(c12)CCCN3c1ccc(Cl)cc1Cl
68 | 94.5 to 95 °C | COc1cc(OC(C)=O)c(OC)c(CCCCCc2c(OC)c(OC(C)=O)cc(OC)c2OC(C)=O)c1OC(C)=O
69 | 152 to 154 °C | CNC(=O)c1ccccc1Nc1nc(Nc2cc3c(cc2OC)C(=O)N(C)CCC3)ncc1Cl
70 | 113 to 115 °C | Cc1cccc(Nc2cc(Cl)nc(SCC(=O)NN3CCCCC3)n2)c1C
71 | 81 to 82 °C | Cc1c(I)sc(I)c1Br
72 | 112 to 114 °C | CC(C)(O)c1ccc(-c2ccc(C(CC3CCOCC3)c3ccc(S(=O)(=O)C4CC4)cc3)[nH]2)nc1 (stereo not given)
73 | 170 °C | Cn1c(CON2C(=O)c3ccccc3C2=O)ncc(OCc2ccccc2)c1=O
74 | 215 to 218 °C | Cc1nnsc1C(=O)Nc1ccc(-n2nc(-c3cccnc3)cc2C#N)cc1
75 | 157 to 159 °C | Cc1cc(N2CCN(CC3CC3)C2=O)sc1C(=O)NCc1cccnc1
76 | 78 to 81 °C | Cc1cc(=O)c(OCc2ccccc2)c(C=O)o1
77 | 130 to 131 °C | Cc1nn(-c2cncc(F)c2)cc1-c1cccc(C(F)(F)F)n1
78 | 235 to 237 °C | CCCC(Sc1nc2ccccc2[nH]1)C(=O)Nc1c(SC)cc(C)nc1SC (stereo not given)
79 | 140 to 142 °C | COc1cc(OC)c(/C=C/S(=O)(=O)CS(=O)(=O)/C=C/c2c(OC)cc(OC)cc2OC)c(OC)c1
80 | 81 to 83 °C | NCc1nc2ccccc2[nH]1

Row | melting point | Structure (SMILES)
81 | 169 to 173 °C | O=C(CO)N1CCN(C(=O)CO)CC1
82 | 102 to 105 °C | CC(C)(C)OC(=O)C(C)(C)ON=C1C=CC=CC1CC(=O)O (stereo not given)
83 | 82 to 84 °C | CCOC(=O)c1cc(CC)sc1Nc1ccc(F)cc1N
84 | 223 to 226 °C | NC(=O)N1C(=O)Cc2cc(NC(=O)c3ccccc3)ccc21
85 | 148 to 149 °C | CCn1nc(-c2ccccc2)c(C(C)=O)c(Nc2ccc(Br)c3cccnc23)c1=O
86 | 160 to 162 °C | Cc1cc(NNC(=O)OC(C)(C)C)nnc1-c1cccc([N+](=O)[O-])c1
87 | > 250 °C | CCOC(=O)c1c(Cl)nc2cc(Cl)c(OC)cc2c1CCl
88 | 90 to 92 °C | CCOC(=O)CCOc1cccc2c1CCC2=O
89 | 114 to 117 °C | COc1cc([N+](=O)[O-])ccc1-c1cnc(C)s1
90 | 72 to 73 °C | BrCCCCCCOc1ccc(OCc2ccccc2)cc1
91 | 176 to 177 °C | COc1cccc2c1CCCC2n1cc[nH]c1=S (stereo not given)
92 | 67 to 70 °C | CC(C)(C)C#CC(O)C#CC(C)(C)C
93 | 142 to 143 °C | OCC(O)Cc1nccn1CCCCc1ccc(OCc2coc(/C=C/c3ccc(C(F)(F)F)cc3)n2)cc1 (stereo not given)
94 | 176 to 178 °C | CCc1nc(C2CC2)c(C(=O)O)n1Cc1ccc2oc(-c3ccccc3C(=O)NS(=O)(=O)c3ccccc3)c(Br)c2c1
95 | 128 to 129 °C | O=C(CC(=O)c1cccn1Cc1ccc(F)cc1)c1ccncn1
96 | 47 to 49 °C | CCCCCCCCCCCCCCC(CCC(=O)OCc1ccccc1)(C(=O)O)C(=O)O
97 | 186 to 189 °C | COc1cccc(Nc2nc(OCC3CCCCC3)c3[nH]cnc3n2)c1
98 | 117 to 119 °C | N#CC(=NO)C(=O)c1ccccc1
99 | 118 to 120 °C | COc1ccc2c(Cc3nc4c(F)c(F)cc(F)c4s3)cn(CC(=O)O)c2c1
100 | 80 to 84 °C | CC(C)(C)OC(=O)NCc1cccc(Cn2ccc(OCc3ccc(F)cc3F)c(Br)c2=O)c1
